# Bridge positions count the residues as written; N and C are the ends. Square brackets hold non-standard residues; d marks the D form. Triazole bridges read from a SMILES are 1,4-linked. Peptide text beside a SMILES is read from it. * marks the point of attachment. Benzoyl(3,5-(OH)2) = O=C(c1cc(O)cc(O)c1)*; Lys(N3) = [N-]=[N+]=NCCCC[C@H](N)C(=O)O; dPhe(4-F) = N[C@H](Cc1ccc(F)cc1)C(=O)O; Nle = CCCC[C@H](N)C(=O)O; Pra = C#CC[C@H](N)C(=O)O
# Legend:
# [1] = Solubility comparison; format: physicochemical
# Source text: The MCR agonists in vivo ocular permeability should allow for concentrations well exceeding EC50 values.
# [2] = system: corneal edema following descemetorhexis without endothethelial keratoplasty (DWEK) surgery in rabbits; test: Corneal edema and wound healing after DWEK surgery, topical administration, rabbit; format: in vivo
# Procedure: The objective of the present study was to evaluate the efficacy of the α-MSH peptide analogues in reducing corneal edema following descemetorhexis without endothethelial keratoplasty (DWEK) surgery in rabbits. […] Treatment was administered once (QD) or twice daily (BID) with approximately 6-8 hours between each BID dose.
# The rabbits were subjected to a surgical procedure prior to administering topical treatment. The animals received buprenorphine (0.01-0.05 mg/kg SC) and were sedated immediately prior to the procedure with ketamine/xylazine cocktail (20-50/4-10 mg/kg IM). Aseptic precautions were taken for the surgical procedure. […] Sterile eyewash was then used to irrigate the ocular surface of the left eye. […] The animal's corneal epithelium was marked with a circular ring (5 mm) to create a template for resection of the host tissue. […] Descemet's membrane was scored peripherally using a reverse Terry-Sinskey hook, and then Descemet's membrane was peeled from the overlying stroma. Descemet's membrane was removed using forceps. Viscoelastic was removed by Irrigation Aspiration (IA) using balanced salt […] (BSS). One (1) ml of epinephrine 1:1000 and 0.5 ml of heparin (10,000 USP units/ml) was added to each 500 ml of irrigation solution (BSS) to facilitate pupil dilation, control inflammation, and reduce fibrin formation. […]
# [3] = rabbit, in vivo
# Procedure: (§1) Animals were acclimated to the study and, upon completion of the acclimation period, each animal was physically examined for determination of suitability for study participation. […] Animals were uniquely identified by corresponding cage card number and ear tag.
# (§2) The designated peptide formulations (35 μL) were administered to the eye of each animal using a calibrated pipette. With the animal manually restrained, the upper eyelid of the eye was gently elevated to expose the cornea. Treatment was then applied to the cornea without contacting the eye with the pipette tip. The animal was then allowed to blink several times while still manually restrained to distribute the applied solution over the eye prior to being returned to the cage. Treatment was administered once daily (QD) or twice daily (BID) with approximately 8 hours between BID doses. Group 1 was administered a single dose, Group 2 received 4 doses, Group 3 received 8 doses. Samples were collected from 3 animals/group 30 min, 1 hr, 2 hr, 4 hr, and 8 hr post-last dose and from 2 animals/group 24 hours post-last dose.
# (§3) Following euthanasia, eyes were enucleated, rinsed 2× with fresh ice-cold PBS, and dabbed dry with gauze. Aqueous humor was removed via a 27- or 30-gauge syringe, placed into a pre-weighted 2 mL polypropylene tube, reweighed, and snap frozen by immersion in liquid nitrogen. The cornea was harvested fresh from each eye, placed into a pre-weighted re-enforced 2 mL polypropylene tube, re-weighed and snap frozen in liquid nitrogen. The remaining ocular tissues were discarded. Ocular samples were stored −80° C. All samples were placed into individual vials and weighed. Aqueous humor and cornea samples were collected.
# [4] = in vivo; settings: rabbit, topical or ocular, 35 uL of 5 mg/ml solution per eye per dose
# Procedure: as §1, §2, §3
# [5] = system: iPSC-derived ocular stem cells (ABC-101); test: ROS assay after TBHP challenge of ocular stem cells; format: cell-based; settings: 550 uM TBHP challenge, ROS at 3 hours and 4 hours, normalized to challenged wells without peptide, FIGS. 7-8
# Source text: To assess the cytoprotective properties of the α-MSH peptide analogues in-vitro the present inventors tested their modulatory influence on reactive oxygen species (ROS) production and caspase activation in response to cellular stress. For these in-vitro challenge assays, the present inventors induced cellular stress using tert-Butyl hydroperoxide (TBHP) or calcium ionophore (A23187), compounds which are respectively known to induce oxidative and metabolic stress. Oxidative stress was correlated to an increase of ROS within cells. […] Within the current assays, the present inventors monitored ROS accumulation and subsequent caspase activity as readouts of cellular stress and eventual cell death. […] Both the ROS and caspase readouts were obtained by using commercially available reagent kits, which are based on a fluorescent indicator readout for each metric per the supplier's protocol. […] Since the assay uses a cell-permeable dye, the readout can be performed within live cells and results in a red fluorescent signal (Ex/Em=520/605 nm), which is correlated to the amount of accumulated ROS within each well. Within the present protocol, the inventors read ROS accumulation over time, starting from 1 hour after incubation up to 4 hours post-incubation. The ocular stem cells (ABC-101 cells) were challenged with 550 uM of TBHP and ROS production was assessed over several hours. […]
# [6] = system: iPSC-derived ocular stem cells (ABC-101); test: Apo-ONE Homogeneous Caspase-3/7 assay after A23187 challenge of ocular stem cells; format: cell-based
# Source text: To assess the cytoprotective properties of the α-MSH peptide analogues in-vitro the present inventors tested their modulatory influence on reactive oxygen species (ROS) production and caspase activation in response to cellular stress. For these in-vitro challenge assays, the present inventors induced cellular stress using tert-Butyl hydroperoxide (TBHP) or calcium ionophore (A23187), compounds which are respectively known to induce oxidative and metabolic stress. Oxidative stress was correlated to an increase of ROS within cells. […] Within the current assays, the present inventors monitored ROS accumulation and subsequent caspase activity as readouts of cellular stress and eventual cell death. […] Both the ROS and caspase readouts were obtained by using commercially available reagent kits, which are based on a fluorescent indicator readout for each metric per the supplier's protocol. […] Readouts are routinely taken at 80 min and 150 min after incubation is started. Following a similar layout as with the ROS induction assay, the present inventors subsequently assessed induction of Caspase 3/7 activity following a 1 hour challenge with 2.5 uM A23187. Readings from Caspase 3/7 activation were taken at 80 and 150 minutes post-substrate addition and readouts were compared to non-supplemented controls.
compound,measurement,setting,value
"CCCC[C@H](NC(C)=O)C(=O)N[C@H]1CCCCn2cc(nn2)C[C@@H](C(N)=O)NC(=O)[C@H](Cc2c[nH]c3ccccc23)NC(=O)[C@H](CCCNC(=N)N)NC(=O)[C@@H](Cc2ccccc2)NC(=O)[C@H](Cc2cnc[nH]2)NC1=O [Peptide K110, Ac-Nle-[Lys(N3)-His-DPhe-Arg-Trp-Pra]-NH2] (Ac-[Nle][Lys(N3)]H[dF]RW[Pra]-NH2; triazole 2-7)",Solubility,[1],>5000 µg/mL
"CCCC[C@H](NC(=O)c1cc(O)cc(O)c1)C(=O)N[C@H]1CCCCn2cc(nn2)C[C@@H](C(N)=O)NC(=O)[C@H](Cc2c[nH]c3ccccc23)NC(=O)[C@H](CCCNC(=N)N)NC(=O)[C@@H](Cc2ccc(F)cc2)NC(=O)[C@H](Cc2c[nH]cn2)NC1=O [Peptide K173, HyBA-Nle-[Lys(N3)-His-Dphe(4-F)-Arg-Trp-Pra]-NH2] ({Benzoyl(3,5-(OH)2)}-[Nle][Lys(N3)]H[dPhe(4-F)]RW[Pra]-NH2; triazole 2-7)","wound healing (rate of wound closure, corneal flat mount)","[2]; 3 animals per group, FIGS. 12A, 12B",enhanced wound healing
same,corneal edema (corneal stromal thickness by OCT),"[2]; topical 1 mg/ml or 5 mg/ml QD or BID, FIG. 11",decreased corneal edema
same,aqueous humor (AH) concentrations with repeated dosing,[3],increase with repeated dosing
same,levels after 24 hours,[3],measurable levels were detected after 24 hours in all dose groups
same,ocular surface retention and Tmax,[3]; topical or ocular,prolonged ocular surface retention and Tmax
same,level at 24 h,[4]; K173 Concentrations (ng/mL) in Rabbit Aqueous Humor OD Sample,3.34 ng/mL
same,level at 24 h,[4]; K173 Concentrations (ng/mL) in Rabbit Aqueous Humor OS Sample,3.94 ng/mL
"CCCC[C@H](NC(=O)c1cc(O)cc(O)c1)C(=O)N[C@H]1CCCCn2cc(nn2)C[C@@H](C(N)=O)NC(=O)[C@H](Cc2c[nH]c3ccccc23)NC(=O)[C@H](CCCNC(=N)N)NC(=O)[C@@H](Cc2ccccc2)NC(=O)[C@H](Cc2c[nH]cn2)NC1=O [Peptide K174, HyBA-Nle-[Lys(N3)-His-DPhe-Arg-Trp-Pra]-NH2] ({Benzoyl(3,5-(OH)2)}-[Nle][Lys(N3)]H[dF]RW[Pra]-NH2; triazole 2-7)",protection against ROS accumulation,[5],protective against ROS accumulation down to the low pM range
same,percent increase in caspase activation over control,"[6]; 100 nM peptide, A23187 challenge, FIG. 9",lowest percent increase over control
same,Caspase 3/7 activity (protection against apoptosis induction),"[6]; 1 hour challenge with 2.5 uM A23187, readings at 80 and 150 minutes, vs non-supplemented controls, FIGS. 9-10",highest degree of protection against apoptosis induction

# Reference: patent US20260151434A1, “COMPOSITIONS FOR THE TREATMENT OF DISEASE” (priority 2022, published 2026)
